Measured values as given in patent US20160287534A1, “METHODS FOR REVERSING FIBROSIS” (The University of Connecticut, priority 2015, published 2016).

Tests used:
[1] = system: aHSCs; assay: Reversion of aHSCs to iHSCs: morphology, qRT-PCR, α-SMA protein; assay type: cell-based, mouse
Protocol: (§1) ASTX, provided by Fuji Chemical Industry Co., Ltd. (Toyama, Japan), was prepared in DMSO as described herein in Example 1. After plated on an uncoated dish, mouse qHSCs were incubated with 25 μM ASTX during activation. aHSCs, which were prepared by culturing qHSCs on an uncoated dish for 6 d, were incubated with 25 μM ASTX for 2 or 4 more days. Also, cells were incubated with 3 μM tert-butyl hydrogen peroxide (tBHP, Thermo Scientific) for 12 h with or without 25 μM ASTX. Medium containing ASTX was replenished daily and DMSO vehicle control was always run in parallel. Human primary HSC were treated with 25 μM ASTX for 24 h, after which they were activated by 3 ng/mL of TGFβ1 (Peprotech, Rocky Hill, N.J.) for 24 h.
(§2) Total RNA extraction, cDNA synthesis, and qRT-PCR were conducted using a Bio-Rad CFX96 Real-Time system (Bio-Rad, Hercules, Calif.) as previously described (Id.). Primer sequences will be available upon request.
Whole cell lysates and human tissue protein extracts were prepared and Western blot analysis were performed as described (Id.) using antibodies against α-SMA (Sigma, St. Louis, Mo.), HDAC3 (Santa Cruz Biotechnology, Santa Cruz, Calif.), HDAC4 (Santa Cruz Biotechnology), HDAC9 (Abcam, Cambridge, Mass.; Novus Biologicals, Littleton, Colo.), Col1A1 (Sigma). β-tubulin (Santa Cruz) or glyceraldehyde 3-phosphate dehydrogenase (GAPDH) (Santa Cruz) was used as a loading control.

[2] = system: HSCs from wild-type and Nrf2−/− mice; assay: qRT-PCR of HSCs from wild-type and Nrf2−/− mice; assay type: cell-based, mouse
Protocol: Mouse primary HSCs were isolated from C57BL/6J, nuclear erythroid 2-related factor 2 (NRF2) knockout (Nrf2−/−), and wild-type mice using a pronase/collagenase digestion method as described herein Example 1. The cells were then cultured on untreated petri dishes (BD Falcon, Franklin Lakes, N.J.), and maintained in a low-glucose DMEM medium supplemented with 10% FBS, 4 mM L-glutamine, and P/S (100 U/100 μg per mL). Human primary HSCs (Zen-Bio, Research Triangle Park, N.C.) were maintained in a low-glucose DMEM medium containing 2% FBS, 4 mM L-glutamine, 1× nonessential amino acids, 1× vitamins, and P/S (100 U/100 μg per mL). The cells were seeded on a collagen-coated plate for experiments (Sarstedt, Newton, N.C.). LX-2 cells, kindly provided by Dr. Scott Friedman at the Icahn School of Medicine at Mount Sinai (New York, N.Y.), were maintained in a low-glucose DMEM supplemented with 2% FBS, 4 mM L-glutamine, and P/S (100 U/100 μg per mL). All cells were cultured in a 37° C. humidified cell culture chamber with 5% CO2. Cell culture supplies were purchased from HyClone unless stated otherwise (Thermo Scientific, Logan, Utah).
as §1, §2

[3] = system: mouse primary HSCs; assay: ROS measurement in mouse primary HSCs; assay type: cell-based; conditions: ASTX treatment for 6 d during activation (FIG. 8A)
Protocol: Mouse primary qHSCs were seeded on an uncoated black 24-well μ-Plate (Ibidi, Verona, Wis.). At day 6 of activation, cellular ROS levels were measured using dichlorofluorescin (Sigma-Aldrich, St. Louis, Mo.) as described (Id.). The cells were then fixed with 4% formaldehyde for 10 min, and incubated with 0.1% CellTag 700 stain (Li—COR, Lincoln, Nebr.), a fluorescent stain, for cell number normalization, for 1 h. Fluorescent signals were obtained by an Odyssey® CLx Infrared Imaging System (Li—COR) and a Li—COR Image Studio software. Data were expressed as relative fluorescent intensity divided by total cell stain signal.

[4] = system: α-SMA; assay: Western blot and immunostaining of α-SMA protein in LX-2 cells; assay type: cell-based; conditions: 25 μM ASTX (FIGS. 3B, 3C)
Protocol: LX-2 cells were kindly provided by Dr. Scott Friedman at the Icahn School of Medicine at Mount Sinai (New York, N.Y.). Cells were maintained in low-glucose DMEM containing 2% FBS, 4 mM 1-glutamine, 100 U/mL penicillin and 100 μg/mL streptomycin in a 37° C. humidified cell culture chamber providing 5% CO2. LX-2 cells were incubated with varying concentrations of ASTX for 12 or 24 h, and subsequently activated by 2 ng/mL of TGFβ1 (Peprotech, Rocky Hill, N.J.) for 1 to 24 h. Primary mouse HSCs were plated on untreated petri dishes (BD Falcon, Franklin Lakes, N.J.) and maintained in low-glucose DMEM supplemented with 10% FBS, 4 mM L-glutamine, 100 U/mL penicillin and 100 μg/mL streptomycin in a 37° C. humidified cell culture chamber under 5% CO2. ASTX (25 μM) was added at day 2 or day 4 after plating until day 6 with daily media change. […]
Whole cell lysates were prepared to conduct Western blot as we previously described (Id.) using antibodies against α-SMA (Sigma, St. Louis, Mo.), Smad3 (Millipore, Billerica, Mass.), and phospho-Smad3 (Cell Signaling, Danvers, Mass.). β-Tubulin (Santa Cruz Biotechnology, Santa Cruz, Calif.) or β-actin (Sigma, St. Louis, Mo.) was used as a loading control. […] Blots were developed using Westpico horseradish peroxidase chemiluminescence (Pierce, Rockford, Ill.) and images were analyzed using a Chemidoc XRS+system (Bio-Rad) and Image Lab software (Bio-Rad). […]

CC1=C(/C=C/C(C)=C/C=C/C(C)=C/C=C/C=C(C)/C=C/C=C(C)/C=C/C2=C(C)C(=O)C(O)CC2(C)C)C(C)(C)CC(O)C1=O (centres unmarked) [ASTX, astaxanthin]
cell morphology (lipid droplets) ([1]; aHSCs treated with ASTX for 2 or 4 d (FIG. 9A)): reappearance of cytoplasmic lipid droplets
α-SMA and Col1A1 mRNA ([1]; aHSCs treated with ASTX for 2 d (FIG. 9B)): significantly decreased
ADRP mRNA levels, control vs ASTX-treated ([1]; aHSCs, ASTX for 2 d (FIG. 9D)): no significant difference
LRAT mRNA ([1]; aHSCs, ASTX for 2 d (FIG. 9D)): markedly increased
SREBP1c mRNA levels ([1]; aHSCs, ASTX for 2 d (FIG. 9D)): significantly decreased
α-SMA protein ([1]; aHSCs, day 8, ASTX for 2 d (FIG. 9C)): significantly decreased
α-SMA and Col1A1 mRNA ([2]; both wild-type and Nrf2−/− HSCs, activated 6 d with ASTX (FIG. 8C)): able to decrease
tBHP-increased α-SMA expression ([2]; both wild-type and Nrf2−/− HSCs, tBHP at day 6 for 12 h (FIG. 8D)): attenuated
NRF2 expression ([2]; wild-type HSCs (FIG. 8D)): significantly decreased
cellular ROS levels [3]: significantly lowered
protein levels of α-SMA induced by TGFβ1 [4]: significantly decreased
